Read-outs that look alike come from different tables or passages of the source.
Key:
[1] = target: AEA membrane transporter (AMT); type: biochemical, human; settings: for Ki: read-out: Ki (inhibition of AMT); for IC50: read-out: IC50 of inhibition of [3H]AEA uptake; for inhibition of [3H]AEA uptake: 100 µM
[2] = tested on: AEA membrane transporter (AMT); assay: [3H]AEA uptake by human healthy brain; type: biochemical; settings: for IC50: read-out: IC50 of inhibition of [3H]AEA uptake, 15 min at 37°C
[3] = tested on: AEA membrane transporter (AMT); assay: [3H]AEA uptake by mouse brain; type: biochemical; settings: mouse brain synaptosomes
[4] = tested on: AEA membrane transporter (AMT); assay: [3H]AEA uptake by rat brain; type: biochemical; settings: rat brain synaptosomes

NC(=O)CCC(N)C(=O)O (stereo in doubt) [D-Glutamine]
Ki [1]: 0.525 ± 0.05 µM

CCCCC/C=C\C/C=C\C/C=C\C/C=C\CCCC(=O)OC(CO)CO [2-AG, 2-arachidonoylglycerol]
effect on accumulation of 200 nM [3H]AEA [1]: inhibited almost completely

CCCCC/C=C\C/C=C\C/C=C\C/C=C\CCCC(=O)NCCO [AEA, N-arachidonoylethanolamine]
Q10 (ratio of AEA uptake at 30°C and 20°C) ([2]; HB synaptosomes): ~ 1.5
Vmax of AEA uptake ([2]; human healthy brain synaptosomes, 15 min, 0-1000 nM [3H]AEA, 37°C minus 4°C): 374 ± 38 pmol/min per mg protein
Q10 (ratio of AEA uptake at 30°C and 20°C) [1]: ~ 1.5
Vmax of AEA uptake [1]: 219 ± 19 pmol/min per mg protein
effect on accumulation of 200 nM [3H]AEA [1]: fully inhibited
Km ([1]; read-out: apparent Km of AEA uptake): 0.793 ± 0.128 µM
Vmax of AEA uptake [3]: 370 ± 23 pmol/min per mg protein
Km ([3]; read-out: Km of AEA uptake): 0.66 ± 0.08 µM
Vmax of AEA uptake [4]: 357 ± 18 pmol/min per mg protein
Km ([4]; read-out: Km of AEA uptake): 0.483 ± 0.052 µM

CCCCC/C=C\C/C=C\C/C=C\C/C=C\CCCC(=O)Nc1ccc(O)cc1 [AM404, N-(4-hydroxyphenyl)-arachidonoylamide]
IC50 ([2]; HB synaptosomes): ~7 µM
IC50 [1]: ~7 µM

N[C@H](CCC(=O)O)C(=O)O [D-Glutamate]
Ki [1]: 1.23 ± 0.11 µM

N[C@@H](CCC(=O)O)C(=O)O [L-Glutamate]
Ki [1]: 4 ± 0.37 µM

NC(=O)CC[C@H](N)C(=O)O [L-Glutamine]
Ki [1]: 1.1 ± 0.09 µM

CCN1C(=O)C=CC1=O [N-ethylmaleimide]
inhibition of [3H]AEA uptake [1]: ~ 50%

O=S(=O)(F)Cc1ccccc1 [PMSF, phenylmethylsulfonyl fluoride]
inhibition of [3H]AEA uptake [1]: ~ 50%

N=c1c[n+](N2CCOCC2)[n-]o1 [SIN-1, 3-morpholinosydnonimine]
enhancement of [3H]AEA uptake [1]: 180–220%

CCCCC/C=C\C/C=C\C/C=C\C/C=C\CCCC(=O)Nc1ccc(O)cc1C [VDM11]
IC50 ([2]; HB synaptosomes): ~7 µM
IC50 [1]: ~7 µM

CCCCC/C=C\C/C=C\C/C=C\C/C=C\CCCC(=O)O [arachidonic acid]
effect on accumulation of 200 nM [3H]AEA [1]: ineffective

NCCO [ethanolamine]
effect on accumulation of 200 nM [3H]AEA [1]: ineffective

O=C(O)CI [iodoacetic acid]
inhibition of [3H]AEA uptake [1]: ~ 50%

CCCCC/C=C\C[C@@H](O)/C=C/C=C/C=C\[C@@H](O)CCCC(=O)O [leukotriene B4]
effect on accumulation of 200 nM [3H]AEA [1]: not affected

CCCCC[C@H](O)/C=C/[C@H]1[C@H](O)CC(=O)[C@@H]1C/C=C\CCCC(=O)O [prostaglandin E2]
effect on accumulation of 200 nM [3H]AEA [1]: not affected

From publication PMC139962 (Lipids in Health and Disease, 2002)
